Each block holds one compound with its values, some of them ahead of it. Positions of bridges follow the written chain, without caps; N, C: chain ends. Residues, ends and D or L forms follow the SMILES beside them.
Legend:
SSTR4 [1] = biological target: T1, SSTR4 (Homo sapiens, UniProt P31391, F211A); assay: cAMP accumulation assay (agonist-induced inhibition of forskolin-stimulated cAMP), SSTR4, HEK293F; format: cell-based; conditions: SSTR4 mutant F211^5.38A, mean ± SEM;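 note: transiently transfected cells incubated 40 min at room temperature with 4 µM forskolin and graded ligand, cAMP read by LANCE Ultra TR-FRET kit, values normalized to WT receptor per ligand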
T1 construct: expressed in transfected cells; host or cells: HEK293F
Method: (§1) HEK293F cells were transiently transfected with WT or mutant SSTR2/SSTR4 using transfection reagent (PEI MAX 2000, Polysciences) and incubated at 37 °C in 5% CO2. Forty-eight hours after transfection, cells were centrifuged and resuspended in stimulation buffer (Hanks’ balanced salt solution (HBSS) supplemented with 5 mM HEPES, 0.5 mM IBMX and 0.1% (w/v) bovine serum albumin (BSA), pH 7.4) to a density of 200,000 cells/mL and added to 384-well white plates (PerkinElmer, 1000 cells/well). cAMP accumulation was measured by a LANCE Ultra cAMP kit (PerkinElmer) according to the manufacturer’s instructions. In brief, transfected cells were incubated for 40 min in stimulation buffer with 2.5 μL forskolin (SSTR2: 2 μM; SSTR4: 4 μM) and gradient concentration of ligand at RT. The reactions were stopped by addition of lysis buffer containing 5 μL Eu-cAMP tracer and 5 μL ULight-anti-cAMP. Plates were then incubated for 60 min at RT and time-resolved FRET signals were measured at 620 nm and 665 nm by an EnVision multilabel plate reader (PerkinElmer). Data were analyzed in GraphPad PRISM 8 and all values were normalized to the WT for each ligand. All outcomes were repeated at least three times.
(§2) aMutants represent that mutations were introduced separately into the WT receptors and
(§3) transiently expressed in HEK 293F cells.
(§4) bThe EC50 ratio was shown as EC50(mutant)/EC50(WT), indicating the shift between the WT
(§5) and mutant curves, reflecting the effect of the mutations on receptor signaling.
(§6) cData are shown as mean ± S.E.M. from at least three independent experiments
(§7) performed in technical triplicate. One-way ANOVA was performed followed by
(§8) Dunnett’s post-test and compared with WT. The P value was defined as: *P<0.05;
(§9) d The span is defined as the window between the maximal agonists response (Emax) and
(§10) e Sample size; the number of independent experiments performed in technical triplicate.
(§11) f Receptor expression level of HEK 293F cells was determined independently by flow
(§12) cytometry with anti-FLAG antibody and shown as per cent compared to the WT.

SSTR4 [2] = biological target: T2, SSTR4 (Homo sapiens, UniProt P31391, L297A); assay: as above; format: cell-based; conditions: SSTR4 mutant L297^7.39A, mean ± SEM
T2 construct: expressed in transfected cells; host or cells: HEK293F
Method: as §1, §2, §3, §4, §5, §6, §7, §8, §9, §10, §11, §12

SSTR4 [3] = biological target: T3, SSTR4 (Homo sapiens, UniProt P31391, N282A); assay: as above; format: cell-based; conditions: SSTR4 mutant N282^6.58A, mean ± SEM
T3 construct: expressed in transfected cells; host or cells: HEK293F
Method: as §1, §2, §3, §4, §5, §6, §7, §8, §9, §10, §11, §12

SSTR4 [4] = biological target: T4, SSTR4 (Homo sapiens, UniProt P31391, N293A); assay: as above; format: cell-based; conditions: SSTR4 mutant N293^7.35A, mean ± SEM
T4 construct: expressed in transfected cells; host or cells: HEK293F
Method: as §1, §2, §3, §4, §5, §6, §7, §8, §9, §10, §11, §12

SSTR4 [5] = biological target: SSTR4 (Homo sapiens, UniProt P31391, N293F); assay: as above; format: cell-based; conditions: HEK293F; SSTR4 mutant N293^7.35F; mean ± SEM; read-out: Span
Method: as §1, §2, §3, §4, §5, §6, §7, §8, §9, §10, §11, §12

SSTR4 [6] = biological target: SSTR4 (Homo sapiens, UniProt P31391, R110A); assay: as above; format: cell-based; conditions: SSTR4 mutant R110^ECL1A, mean ± SEM
Method: as §1, §2, §3, §4, §5, §6, §7, §8, §9, §10, §11, §12

SSTR4 [7] = biological target: SSTR4 (Homo sapiens, UniProt P31391, S208W); assay: as above; format: cell-based; conditions: SSTR4 mutant S208^5.35W, mean ± SEM
Method: as §1, §2, §3, §4, §5, §6, §7, §8, §9, §10, §11, §12

SSTR4 [8] = biological target: T4, SSTR4; assay: Whole cell binding assay, SSTR4, competition with 125I-Tyr11-SST14, CHO-K1; conditions: SSTR4 mutant N293^7.35A, mean ± SEM
Method: (§13) For SSTR2 and SSTR4, CHO-K1 cells were cultured in F12 medium with 10% FBS and seeded at a density of 30,000 cells/well in Isoplate-96 plates (PerkinElmer). Twenty-four hours after transfection with the WT or mutant SSTR2/SSTR4, CHO-K1 cells were washed twice and incubated with blocking buffer (F12 supplemented with 25 mM HEPES and 0.1% (w/v) BSA, pH 7.4) for 2 h at 37 °C. […] Following incubation, cells were washed three times with ice-cold PBS and lysed by 50 μL lysis buffer (PBS supplemented with 20 mM Tris-HCl, 1% Triton X-100, pH 7.4). The radioactivity was subsequently counted (counts/min, CPM) in a scintillation counter (MicroBeta[2] Plate Counter, PerkinElmer) using a scintillation cocktail (OptiPhaseSuperMix, PerkinElmer). Data were analyzed by nonlinear regression using GraphPad PRISM 8.
(§14) aMutants represent that all mutations were introduced separately into the WT receptors
and expressed in CHO K1 cells.
(§15) bThe IC50 ratio was shown as IC50(mutant)/IC50(WT), indicating the shift between the WT
(§16) and mutant curves, reflecting the effect of the mutations on ligand binding.
(§17) cData are shown as mean ± S.E.M. form at least three independent experiments
as §7
(§18) Dunnett’s post-test and compared with WT.
as §9, §10

SSTR4 [9] = biological target: SSTR4 (Homo sapiens, UniProt P31391, S208A); assay: as above; conditions: SSTR4 mutant S208^5.35A, mean ± SEM
Method: as §13, §14
and expressed in CHO K1 cells.
as §15, §16, §17, §7, §18, §9, §10

SSTR4 [10] = biological target: T5, SSTR4 (Homo sapiens, UniProt P31391); assay: as above; parameters: expressed in transfected cells; conditions: WT SSTR4, mean ± SEM
Method: as §13, §14
and expressed in CHO K1 cells.
as §15, §16, §17, §7, §18, §9, §10

SSTR4 [11] = biological target: SSTR4 (Homo sapiens, UniProt P31391, D126A); assay: as above; parameters: expressed in transfected cells; conditions: CHO-K1; SSTR4 mutant D126^3.32A; mean ± SEM; read-out: Span
Method: as §13, §14
and expressed in CHO K1 cells.
as §15, §16, §17, §7, §18, §9, §10

SSTR4 [12] = biological target: T6, SSTR4 (Homo sapiens, UniProt P31391, F275A); assay: as above; parameters: expressed in transfected cells; conditions: CHO-K1; SSTR4 mutant F275^6.51A; mean ± SEM; read-out: Span
Method: as §13, §14
and expressed in CHO K1 cells.
as §15, §16, §17, §7, §18, §9, §10

SSTR4 [13] = biological target: T7, SSTR4 (Homo sapiens, UniProt P31391, M130A); assay: as above; parameters: expressed in transfected cells; conditions: CHO-K1; SSTR4 mutant M130^3.36A; mean ± SEM; read-out: Span
Method: as §13, §14
and expressed in CHO K1 cells.
as §15, §16, §17, §7, §18, §9, §10

SSTR4 [14] = biological target: T8, SSTR4 (Homo sapiens, UniProt P31391, N199A); assay: as above; parameters: expressed in transfected cells; conditions: CHO-K1; SSTR4 mutant N199^ECL2A; mean ± SEM; read-out: Span
Method: as §13, §14
and expressed in CHO K1 cells.
as §15, §16, §17, §7, §18, §9, §10

SSTR4 [15] = biological target: T9, SSTR4 (Homo sapiens, UniProt P31391, Q279A); assay: as above; parameters: expressed in transfected cells; conditions: SSTR4 mutant Q279^6.55A, mean ± SEM
Method: as §13, §14
and expressed in CHO K1 cells.
as §15, §16, §17, §7, §18, §9, §10

SSTR4 [16] = biological target: T10, SSTR4 (Homo sapiens, UniProt P31391, T215A); assay: as above; parameters: expressed in transfected cells; conditions: SSTR4 mutant T215^5.42A, mean ± SEM
Method: as §13, §14
and expressed in CHO K1 cells.
as §15, §16, §17, §7, §18, §9, §10

SSTR4 [17] = biological target: SSTR4 (Homo sapiens, UniProt P31391, Y301A); assay: as above; parameters: expressed in transfected cells; conditions: CHO-K1; SSTR4 mutant Y301^7.43A; mean ± SEM; read-out: Span
Method: as §13, §14
and expressed in CHO K1 cells.
as §15, §16, §17, §7, §18, §9, §10

SSTR4 [18] = biological target: T5, SSTR4; assay: cAMP accumulation assay (agonist-induced inhibition of forskolin-stimulated cAMP), SSTR4, HEK293F; format: cell-based; parameters: expressed in transfected cells; host or cells: HEK293F; conditions: HEK293F, WT SSTR4, mean ± SEM;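 note: transiently transfected cells incubated 40 min at room temperature with 4 µM forskolin and graded ligand, cAMP read by LANCE Ultra TR-FRET kit, values normalized to WT receptor per ligand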
Method: as §1, §2, §3, §4, §5, §6, §7, §8, §9, §10, §11, §12

SSTR4 [19] = biological target: T6, SSTR4; assay: as above; format: cell-based; parameters: expressed in transfected cells; host or cells: HEK293F; conditions: SSTR4 mutant F275^6.51A, mean ± SEM
Method: as §1, §2, §3, §4, §5, §6, §7, §8, §9, §10, §11, §12

SSTR4 [20] = biological target: T7, SSTR4; assay: as above; format: cell-based; parameters: expressed in transfected cells; host or cells: HEK293F; conditions: SSTR4 mutant M130^3.36A, mean ± SEM
Method: as §1, §2, §3, §4, §5, §6, §7, §8, §9, §10, §11, §12

SSTR4 [21] = biological target: T8, SSTR4; assay: as above; format: cell-based; parameters: expressed in transfected cells; host or cells: HEK293F; conditions: SSTR4 mutant N199^ECL2A, mean ± SEM
Method: as §1, §2, §3, §4, §5, §6, §7, §8, §9, §10, §11, §12

SSTR4 [22] = biological target: T9, SSTR4; assay: as above; format: cell-based; parameters: expressed in transfected cells; host or cells: HEK293F; conditions: SSTR4 mutant Q279^6.55A, mean ± SEM
Method: as §1, §2, §3, §4, §5, §6, §7, §8, §9, §10, §11, §12

SSTR4 [23] = biological target: T10, SSTR4; assay: as above; format: cell-based; parameters: expressed in transfected cells; host or cells: HEK293F; conditions: SSTR4 mutant T215^5.42A, mean ± SEM
Method: as §1, §2, §3, §4, §5, §6, §7, §8, §9, §10, §11, §12

SSTR1–5 = conditions: cited from earlier work
Source text: Somatostatin (SST), an inhibitory hormone that distributes widely in both human central nervous system and periphery tissues negatively regulates multiple hormone releases (growth hormone, glucagon, insulin, gastrin and cholecystokinin) and cell proliferation through SST receptors (SSTRs).[1]–[4] There are five types of SSTRs, namely SSTR1–SSTR5, which are divided into two subfamilies: SRIF1 (SSTR2, SSTR3, SSTR5) and SRIF2 (SSTR1, SSTR4) based on phylogenetic, sequence homology and ligand binding profiles.[5] Two bioactive SST peptides, SST-14 and its N-terminally extended form SST-28, have be ...

[24] = cited from earlier work
Source text: Along with increased knowledge of the pharmacological effects of these receptors, medical application of SST and its analogs has expanded. A considerable amount of effort has been made to develop new therapeutics for oncology of SSTRs. […] It was found recently that radiolabeled SSTR antagonists produced superi ...

[25] = at least three independent experiments

T10 sequence (P31391 whole entry T215A): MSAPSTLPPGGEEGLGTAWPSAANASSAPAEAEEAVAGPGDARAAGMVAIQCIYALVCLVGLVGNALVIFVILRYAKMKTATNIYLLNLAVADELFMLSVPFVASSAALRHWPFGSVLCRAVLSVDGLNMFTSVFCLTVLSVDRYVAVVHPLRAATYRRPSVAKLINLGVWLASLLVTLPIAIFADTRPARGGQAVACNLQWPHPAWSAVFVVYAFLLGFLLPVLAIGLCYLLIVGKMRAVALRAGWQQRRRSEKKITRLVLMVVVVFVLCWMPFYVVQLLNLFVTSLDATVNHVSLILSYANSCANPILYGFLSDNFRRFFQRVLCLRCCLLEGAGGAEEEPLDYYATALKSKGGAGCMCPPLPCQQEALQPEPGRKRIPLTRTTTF
T6 sequence (P31391 whole entry F275A): as the sequence (P31391 whole entry T215A) above, with A215T, F275A counted along it
T4 sequence (P31391 whole entry N293A): as the sequence (P31391 whole entry T215A) above, with A215T, N293A counted along it
T8 sequence (P31391 whole entry N199A): as the sequence (P31391 whole entry T215A) above, with N199A, A215T counted along it
T9 sequence (P31391 whole entry Q279A): as the sequence (P31391 whole entry T215A) above, with A215T, Q279A counted along it
T7 sequence (P31391 whole entry M130A): as the sequence (P31391 whole entry T215A) above, with M130A, A215T counted along it
T5 sequence (P31391 whole entry): as the sequence (P31391 whole entry T215A) above, with A215T counted along it
Sequence of SSTR4 (Homo sapiens, UniProt P31391, S208A) (P31391 whole entry S208A): as the sequence (P31391 whole entry T215A) above, with S208A, A215T counted along it
Sequence of SSTR4 (Homo sapiens, UniProt P31391, S208W) (P31391 whole entry S208W): as the sequence (P31391 whole entry T215A) above, with S208W, A215T counted along it
T2 sequence (P31391 whole entry L297A): as the sequence (P31391 whole entry T215A) above, with A215T, L297A counted along it
Sequence of SSTR4 (Homo sapiens, UniProt P31391, R110A) (P31391 whole entry R110A): as the sequence (P31391 whole entry T215A) above, with R110A, A215T counted along it
T3 sequence (P31391 whole entry N282A): as the sequence (P31391 whole entry T215A) above, with A215T, N282A counted along it
T1 sequence (P31391 whole entry F211A): as the sequence (P31391 whole entry T215A) above, with F211A, A215T counted along it
Sequence of SSTR4 (Homo sapiens, UniProt P31391, N293F) (P31391 whole entry N293F): as the sequence (P31391 whole entry T215A) above, with A215T, N293F counted along it
Sequence of SSTR4 (Homo sapiens, UniProt P31391, Y301A) (P31391 whole entry Y301A): as the sequence (P31391 whole entry T215A) above, with A215T, Y301A counted along it
Sequence of SSTR4 (Homo sapiens, UniProt P31391, D126A) (P31391 whole entry D126A): as the sequence (P31391 whole entry T215A) above, with D126A, A215T counted along it

Emax (SSTR4 [1]; HEK293F, read-out: Span): 65 ± 5%
EC50 (SSTR4 [1]): 145 nM
Emax (SSTR4 [2]; HEK293F, read-out: Span): 99 ± 8%
EC50 (SSTR4 [2]): 102 nM
Emax (SSTR4 [3]; HEK293F, read-out: Span): 48 ± 2%
EC50 (SSTR4 [3]): 2.34 nM
Emax (SSTR4 [4]; HEK293F, read-out: Span): 106 ± 7%
EC50 (SSTR4 [4]): 3.47 nM
Emax (SSTR4 [5]): 16 ± 7%
Emax (SSTR4 [6]; HEK293F, read-out: Span): 100 ± 6%
EC50 (SSTR4 [6]): 1.91 nM
Emax (SSTR4 [7]; HEK293F, read-out: Span): 58 ± 6%
EC50 (SSTR4 [7]): 1.12 nM
Emax (SSTR4 [8]; CHO-K1, read-out: Span): 132 ± 12%
IC50 (SSTR4 [8]): 1.29 nM
Emax (SSTR4 [9]; CHO-K1, read-out: Span): 152 ± 11%
IC50 (SSTR4 [9]): 0.0708 nM
Emax (SSTR4 [10]; CHO-K1, read-out: Span): 100 ± 7%
IC50 (SSTR4 [10]; [25]): 3.8 nM
Emax (SSTR4 [11]): 23 ± 8%
Emax (SSTR4 [12]): 23 ± 5%
Emax (SSTR4 [13]): 26 ± 5%
Emax (SSTR4 [14]): 26 ± 7%
Emax (SSTR4 [15]; CHO-K1, read-out: Span): 45 ± 12%
IC50 (SSTR4 [15]): 1.35 nM
Emax (SSTR4 [16]; CHO-K1, read-out: Span): 96 ± 15%
IC50 (SSTR4 [16]): 0.0676 nM
Emax (SSTR4 [17]): 30 ± 16%
Emax (SSTR4 [18]; window between Emax and vehicle, read-out: Span): 100 ± 3%
EC50 (SSTR4 [18]; [25]): 1.26 nM
Emax (SSTR4 [19]; HEK293F, read-out: Span): 20 ± 5%
EC50 (SSTR4 [19]): 676 nM
Emax (SSTR4 [20]; HEK293F, read-out: Span): 72 ± 4%
EC50 (SSTR4 [20]): 97.7 nM
Emax (SSTR4 [21]; HEK293F, read-out: Span): 93 ± 6%
EC50 (SSTR4 [21]): 15.1 nM
Emax (SSTR4 [22]; HEK293F, read-out: Span): 77 ± 5%
EC50 (SSTR4 [22]): 5.01 nM
Emax (SSTR4 [23]; HEK293F, read-out: Span): 79 ± 6%
EC50 (SSTR4 [23]): 0.479 nM
Compound: C[C@@H]1NC(=O)[C@H](Cc2ccccc2)NC(=O)[C@@H](N)CSSC[C@@H](C(=O)O)NC(=O)[C@H](Cc2ccccc2)NC(=O)[C@H]([C@@H](C)O)NC(=O)[C@H](CCCCN)NC(=O)[C@H](Cc2c[nH]c3ccccc23)NC1=O [Peptide3] (H-CFAWKTFC-OH; disulfide 1-8)

Compound: SST-28: N-terminally extended form of bioactive SST peptide
affinity for SSTR1–5 (SSTR1–5): high and equal affinity for SSTR1–5

Compound: SST: Somatostatin, an inhibitory hormone
half-life [24]: less than 3 min

Source: PMC9343605, “Structural insights into ligand recognition and selectivity of somatostatin receptors” (Cell Research, 2022)
